The conditions of data set [1]: alcohols, acetone, ethyl acetate, toluene, diethyl ether, dioxane, hexane and n-heptane.
For data set [2] the following is noted: low levels of volatiles by KF and TGA.
The conditions of data set [3]: pH 11.

Converted amounts (≈) assume the structure as drawn.

Experimental findings from patent publication US8614252B2, “Crystalline solid rasagiline base” (Teva Pharmaceutical Industries Ltd., priority 2006, dated 2013) are described below.

On to `C#CCN[C@@H]1CCc2ccccc21` [rasagiline base, R(+)-N-propargyl-1-aminoindan], for which, in data set [1], the “solubility in organic solvents” value is reported as “freely soluble”. In data set [2], the hygroscopicity result is listed as “not hygroscopic”. The solubility in water in data set [3] amounted to 5500 µg/mL (≈ 32.1 mM).
